This note sets out measurements from Sander's compilation of Henry's law constants.

This data set is described as follows: Henry solubility constant Hcp at 298.15 K (mol/(m3 Pa)).
Where [1] appears, read: reference: Wieland et al. (2015).
[2] abbreviates: reference: Buttery et al. (1971).
The mark [3] stands for this setting: reference: Hovorka et al. (2019).
Where [4] appears, read: reference: Butler et al. (1935).
Where [5] appears, read: reference: Fenclová et al. (2010).
[6] abbreviates: reference: Amoore and Buttery (1978).

`CCc1ncc(C)nc1C` [2-ethyl-3,5-dimethylpyrazine]: under setting [1], the “Henry solubility constant Hcp” value is 2.9. On to `CCc1nccnc1OC` [2-ethyl-3-methoxypyrazine], for which the “Henry solubility constant Hcp” value under setting [2] amounted to 0.67. For `CCc1cnccn1` [2-ethylpyrazine], under setting [2], the “Henry solubility constant Hcp” value came out at 4. In the case of `CCCCCC(C)=O` [2-heptanone], the “Henry solubility constant Hcp” value is, setting by setting: (reference: Chai et al. (2005)) 0.068; (reference: Kim et al. (2000)) 0.062. Take `CCCCC(C)=O` [2-hexanone]: the “Henry solubility constant Hcp” value (reference: Chai et al. (2005)) was 0.086; the “Henry solubility constant Hcp” value under setting [3] stood at 0.099; the “Henry solubility constant Hcp” value (reference: Straver and de Loos (2005)) was 0.11.

Turning to `COC(=O)c1ccccc1O` [2-hydroxybenzoic acid methyl ester], the “Henry solubility constant Hcp” value (reference: Karl et al. (2008)) turned out to be 0.33. On to `COc1nccnc1CC(C)C` [2-isobutyl-3-methoxypyrazine], for which the “Henry solubility constant Hcp” value under setting [2] turned out to be 0.2.

`CC(C)Cc1cnccn1` [2-isobutylpyrazine]: under setting [2], the “Henry solubility constant Hcp” value came to 2. Consider `CCCCCC(C)(C)OC` [2-methoxy-2-methylheptane], for which the “Henry solubility constant Hcp” value (reference: Haimi et al. (2006)) came out at 0.0019. Consider `C=CCc1ccc(O)c(OC)c1` [2-methoxy-4-(2-propenyl)-phenol], for which, where the note is “reference: McFall et al. (2020)”, the “Henry solubility constant Hcp” value turned out to be 9.2. As to `C=CC(=C)C` [2-methyl-1,3-butadiene], the “Henry solubility constant Hcp” value (reference: Leng et al. (2013)) stood at 0.00034 and the “Henry solubility constant Hcp” value (reference: Schuhfried et al. (2015)) was determined as 0.0003. On to `CCC(C)CO` (stereo not given) [2-methyl-1-butanol], for which the “Henry solubility constant Hcp” value under setting [4] amounted to 0.7 and the “Henry solubility constant Hcp” value under setting [5] was 0.78. Regarding `CC(C)CS` [2-methyl-1-propanethiol], for the setting “reference: Zin et al. (2016)”, the “Henry solubility constant Hcp” value was 0.001. For the compound `CC(C)CO` [2-methyl-1-propanol], the “Henry solubility constant Hcp” value was determined as 0.83 under setting [4]; 1 (reference: Snider and Dawson (1985)).

For the compound `CCC(C)(C)O` [2-methyl-2-butanol], the “Henry solubility constant Hcp” value came out at 0.71 under setting [4] and 0.72 under setting [5]. For the compound `C=C(C)C(=O)O` [2-methyl-2-propenoic acid], under “reference: Khan et al. (1992)”, the “Henry solubility constant Hcp” value was 25. Regarding `CCC(=O)C(C)C` [2-methyl-3-pentanone], under setting [3], the “Henry solubility constant Hcp” value is 0.052.

Take `C=C(C)[C@@H]1CC=C(C)C(=O)C1` [2-methyl-5-(1-methylethenyl)-2-cyclohexen-1-one]: the “Henry solubility constant Hcp” value under setting [6] was 0.49. Turning to `CCC(C)C=O` (stereo not given) [2-methylbutanal], the “Henry solubility constant Hcp” value (reference: Pollien et al. (2003)) came to 0.023. Regarding `Cc1ccco1` [2-methylfuran], the “Henry solubility constant Hcp” value under setting [1] was 0.0015. Regarding `CC1(C)[C@@H]2CC[C@@]1(C)[C@](C)(O)C2` [2-methylisoborneol], the “Henry solubility constant Hcp” value (reference: Ömür-Özbek and Dietrich (2005)) was found to be 0.089. With `CC1CNCCN1` (stereo not given) [2-methylpiperazine], under “reference: Nguyen (2013)”, the “Henry solubility constant Hcp” value came out at 5000. With `CC(C)C` [2-methylpropane], the “Henry solubility constant Hcp” value was determined as 8.5e-06 (reference: McAuliffe (1963)), 0.00011 (reference: Mohebbi et al. (2012)) and 9.9e-06 (reference: Wetlaufer et al. (1964)). `CC(C)COC(=O)C(C)C` [2-methylpropyl 2-methylpropanoate]: the “Henry solubility constant Hcp” value under setting [6] worked out at 0.01. Regarding `Cc1cnccn1` [2-methylpyrazine], the “Henry solubility constant Hcp” value under setting [2] came to 4.5. As to `O=[N+]([O-])c1ccccc1O` [2-nitrophenol], the “Henry solubility constant Hcp” value is, setting by setting: (reference: Guo and Brimblecombe (2007)) 1.4; (reference: Harrison et al. (2002)) 0.83; (reference: Müller and Heal (2001)) 0.89. For `CC(=O)C(=O)O` [2-oxopropanoic acid], the “Henry solubility constant Hcp” value runs as follows: (reference: Khan and Brimblecombe (1992)) 3100; (reference: Khan et al. (1992)) 3100; (reference: Khan et al. (1995)) 3100.

As to `CCCC(C)O` (stereo not given) [2-pentanol], the “Henry solubility constant Hcp” value reads like this: under setting [4], 0.67; under setting [5], 0.71.

For `CCCC(C)O[N+](=O)[O-]` (stereo not given) [2-pentyl nitrate], under “reference: Hauff et al. (1998)”, the “Henry solubility constant Hcp” value is 0.0037. On to `CC(C)S` [2-propanethiol], for which the “Henry solubility constant Hcp” value (reference: Haimi et al. (2006)) was 0.0013 and the “Henry solubility constant Hcp” value (reference: Zin et al. (2016)) was determined as 0.0016.
